According to patent publication US20250163038A1, “CBL-B MODULATORS AND USES THEREOF” (Nimbus Clio, Inc., priority 2021, published 2025):
pEC50, pIC50: −log10 of the molar value. Like-named read-outs stand apart in the source and are kept apart here.

What was measured:
[1] = target: Recombinant human Cbl-b (aa 36-427) (Homo sapiens, UniProt Q13191); assay: Cbl-b Biochemical Assay (TR-FRET); conditions: read-out: TR-FRET hCbl-b IC50
[2] = system: Jurkat (clone E6-1) cells with NFAT luciferase reporter; assay: Jurkat reporter assay (NFAT Luciferase); type: cell-based; conditions: Homo sapiens; for pEC50: Jurkat NFAT luciferase reporter cells, anti-CD3 stimulation, 6 hr, read-out: Jurkat NFAT EC50; for EC50: Jurkat, 6 h, read-out: Jurkat NFAT EC50 (μM)
[3] = target: T1, Recombinant human c-Cbl (aa 47-435) (Homo sapiens, UniProt P22681); assay: c-Cbl Biochemical Assay (TR-FRET); conditions: hc-Cbl Biochemical Assay (TR-FRET); read-out: TR-FRET hcCbl IC50
T1 sequence (P22681 47-435): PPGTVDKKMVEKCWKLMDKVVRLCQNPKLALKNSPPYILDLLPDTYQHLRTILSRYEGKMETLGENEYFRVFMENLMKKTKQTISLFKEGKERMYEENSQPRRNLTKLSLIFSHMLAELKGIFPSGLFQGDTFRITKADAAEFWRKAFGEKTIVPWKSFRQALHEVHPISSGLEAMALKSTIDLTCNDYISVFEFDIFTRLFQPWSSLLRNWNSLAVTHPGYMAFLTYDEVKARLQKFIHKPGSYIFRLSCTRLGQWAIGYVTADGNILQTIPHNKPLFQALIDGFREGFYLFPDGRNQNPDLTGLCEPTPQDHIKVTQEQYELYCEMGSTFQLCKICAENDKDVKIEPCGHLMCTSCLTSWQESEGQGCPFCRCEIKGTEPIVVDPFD

Sequence of Recombinant human Cbl-b (aa 36-427) (Q13191 36-427): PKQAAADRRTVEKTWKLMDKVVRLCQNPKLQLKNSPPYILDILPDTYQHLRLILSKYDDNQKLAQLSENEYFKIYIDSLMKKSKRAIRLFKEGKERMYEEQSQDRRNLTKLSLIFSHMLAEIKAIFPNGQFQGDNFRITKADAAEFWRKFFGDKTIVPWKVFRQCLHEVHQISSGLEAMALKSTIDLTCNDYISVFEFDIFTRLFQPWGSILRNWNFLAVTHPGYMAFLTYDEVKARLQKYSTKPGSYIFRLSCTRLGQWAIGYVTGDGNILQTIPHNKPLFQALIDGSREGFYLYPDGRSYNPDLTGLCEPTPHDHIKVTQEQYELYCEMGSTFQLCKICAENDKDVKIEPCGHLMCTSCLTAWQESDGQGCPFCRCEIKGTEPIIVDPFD

Row | Compound | pIC50 [1] | pEC50 [2] | pIC50 [3] | EC50 [2]
1 | COc1cc(CNCC2COC2)cc2nc(-c3cccc(-c4ccc(F)cc4-c4nncn4C)c3)oc12 [GZ-1, 1-(2-(4′-Fluoro-2′-(4-methyl-4H-1,2,4-triazol-3-yl)-[1,1′-biphenyl]-3-yl)-7-methoxybenzo[d]oxazol-5-yl)-N-(oxetan-3-ylmethyl)methanamine] | > 6.70 | 6.00 to 6.70 | 6.00 to 6.70 | –
2 | [2H]C([2H])(N[C@@H]1CCC[C@@H]1O)c1cc(C(F)(F)F)c2oc(-c3cccc(-c4ccc(F)cc4-c4nncn4C)c3)nc2c1 [HA-3, (1S,2R)-2-(((2-(4′-Fluoro-2′-(4-methyl-4H-1,2,4-triazol-3-yl)-[1,1′-biphenyl]-3-yl)-7-(trifluoromethyl)benzo[d]oxazol-5-yl)methyl-d2)amino)cyclopentan-1-ol] | > 6.70 | > 6.70 | > 6.70 | –
3 | [2H]C([2H])(NCC1(O)CCC1)c1cc(C(F)(F)F)c2oc(-c3cccc(-c4ccc(F)cc4-c4nncn4C)c3)nc2c1 [HB-1, 1-((((2-(4′-Fluoro-2′-(4-methyl-4H-1,2,4-triazol-3-yl)-[1,1′-biphenyl]-3-yl)-7-(trifluoromethyl)benzo[d]oxazol-5-yl)methyl-d2)amino)methyl)cyclobutan-1-ol] | > 6.70 | > 6.70 | > 6.70 | –
4 | CN(C)CC(=O)NCc1cc(C(F)(F)F)c2oc(-c3cccc(-c4ccc(F)cc4-c4nncn4C)c3)nc2c1 [HC-2, 2-(Dimethylamino)-N-((2-(4′-fluoro-2′-(4-methyl-4H-1,2,4-triazol-3-yl)-[1,1′-biphenyl]-3-yl)-7-(trifluoromethyl)benzo[d]oxazol-5-yl)methyl)acetamide] | > 6.70 | 5.00 to 6.00 | 6.00 to 6.70 | –
5 | CC(=O)NCCNCc1cc(C(F)(F)F)c2oc(-c3cccc(-c4ccc(F)cc4-c4nncn4C)c3)nc2c1 [HD-2, N-(2-(((2-(4′-Fluoro-2′-(4-methyl-4H-1,2,4-triazol-3-yl)-[1,1′-biphenyl]-3-yl)-7-(trifluoromethyl)benzo[d]oxazol-5-yl)methyl)amino)ethyl)acetamide] | > 6.70 | 6.00 to 6.70 | > 6.70 | –
6 | Cn1cnnc1-c1cc(F)ccc1-c1cccc(-c2nc3cc(CNCC(=O)N4CCC4)cc(C(F)(F)F)c3o2)c1 [HE-4, 1-(Azetidin-1-yl)-2-(((2-(4′-fluoro-2′-(4-methyl-4H-1,2,4-triazol-3-yl)-[1,1′-biphenyl]-3-yl)-7-(trifluoromethyl)benzo[d]oxazol-5-yl)methyl)amino)ethan-1-one] | > 6.70 | 5.00 to 6.00 | > 6.70 | –
7 | COc1cc(CN[C@@H]2C[C@H](O)C2(C)C)cc2nc(-c3cccc(-c4ccc(F)cc4-c4nncn4C)c3)oc12 [HF-1, (1S,3R)-3-(((2-(4′-Fluoro-2′-(4-methyl-4H-1,2,4-triazol-3-yl)-[1,1′-biphenyl]-3-yl)-7-methoxybenzo[d]oxazol-5-yl)methyl)amino)-2,2-dimethylcyclobutan-1-ol] | > 6.70 | 5.00 to 6.00 | 6.00 to 6.70 | –
8 | Cn1cnnc1-c1cc(F)ccc1-c1cccc(-c2nc3cc(CN[C@@H]4CCC[C@@H]4O)cc(Cl)c3o2)c1 [HG-7, (1S,2R)-2-(((7-Chloro-2-(4′-fluoro-2′-(4-methyl-4H-1,2,4-triazol-3-yl)-[1,1′-biphenyl]-3-yl)benzo[d]oxazol-5-yl)methyl)amino)cyclopentan-1-ol] | > 6.70 | – | > 6.70 | < 0.2 µM
9 | Cn1cnnc1-c1cc(F)ccc1-c1cccc(-c2nc3cc(CN[C@@H]4CCC[C@@H]4O)cc(C#N)c3o2)c1 [HH-3, 2-(4′-Fluoro-2′-(4-methyl-4H-1,2,4-triazol-3-yl)-[1,1′-biphenyl]-3-yl)-5-((((1R,2S)-2-hydroxycyclopentyl)amino)methyl)benzo[d]oxazole-7-carbonitrile] | > 6.70 | – | > 6.70 | < 0.2 µM
10 | Cn1cnnc1-c1cc(F)ccc1-c1cccc(-c2nc3cc(CN[C@H]4CCC[C@H]4O)cc(C(F)(F)F)c3o2)c1 [HI-2, (1R,2S)-2-(((2-(4′-Fluoro-2′-(4-methyl-4H-1,2,4-triazol-3-yl)-[1,1′-biphenyl]-3-yl)-7-(trifluoromethyl)benzo[d]oxazol-5-yl)methyl)amino)cyclopentan-1-ol] | > 6.70 | > 6.70 | > 6.70 | –
11 | Cn1cnnc1-c1cc(F)ccc1-c1cccc(-c2nc3cc(CN[C@H]4CCC[C@@H]4O)cc(C(F)(F)F)c3o2)c1 [HJ-1, (1S,2S)-2-(((2-(4′-Fluoro-2′-(4-methyl-4H-1,2,4-triazol-3-yl)-[1,1′-biphenyl]-3-yl)-7-(trifluoromethyl)benzo[d]oxazol-5-yl)methyl)amino)cyclopentan-1-ol] | > 6.70 | > 6.70 | > 6.70 | –
12 | Cn1cnnc1-c1cc(F)ccc1-c1cccc(-c2nc3cc(CNCC4(C)CCC4)cc(C(F)(F)F)c3o2)c1 [HK-2, 1-(2-(4′-Fluoro-2′-(4-methyl-4H-1,2,4-triazol-3-yl)-[1,1′-biphenyl]-3-yl)-7-(trifluoromethyl)benzo[d]oxazol-5-yl)-N-((1-methylcyclobutyl)methyl)methanamine] | > 6.70 | > 6.70 | > 6.70 | –
13 | Cn1cnnc1-c1cc(F)ccc1-c1cccc(-c2nc3cc(CNC[C@@]4(C)CCO4)cc(C(F)(F)F)c3o2)c1 [HL-2, (R)-1-(2-(4′-Fluoro-2′-(4-methyl-4H-1,2,4-triazol-3-yl)-[1,1′-biphenyl]-3-yl)-7-(trifluoromethyl)benzo[d]oxazol-5-yl)-N-((2-methyloxetan-2-yl)methyl)methanamine] | > 6.70 | 6.00 to 6.70 | > 6.70 | –
14 | Cn1cnnc1-c1cc(F)ccc1-c1cccc(-c2nc3cc(NCCC4CCCC4)cc(C(F)(F)F)c3o2)c1 [HM-3, N-(2-Cyclopentylethyl)-2-(4′-fluoro-2′-(4-methyl-4H-1,2,4-triazol-3-yl)-[1,1′-biphenyl]-3-yl)-7-(trifluoromethyl)benzo[d]oxazol-5-amine] | 5.00 to 6.00 | 5.00 to 6.00 | 5.00 to 6.00 | –
15 | Cn1cnnc1-c1cc(F)ccc1-c1cccc(-c2nc3cc(CNCCC4CCCC4)cc(C(F)(F)F)c3o2)c1 [HN-1, 2-Cyclopentyl-N-((2-(4′-fluoro-2′-(4-methyl-4H-1,2,4-triazol-3-yl)-[1,1′-biphenyl]-3-yl)-7-(trifluoromethyl)benzo[d]oxazol-5-yl)methyl)ethan-1-amine] | > 6.70 | 6.00 to 6.70 | > 6.70 | –
16 | Cn1cnnc1-c1cc(F)ccc1-c1cccc(-c2nc3cc(CNC4CC4)cc(C(F)(F)F)c3o2)c1 [HO-2, N-((2-(4′-Fluoro-2′-(4-methyl-4H-1,2,4-triazol-3-yl)-[1,1′-biphenyl]-3-yl)-7-(trifluoromethyl)benzo[d]oxazol-5-yl)methyl)cyclopropanamine] | > 6.70 | > 6.70 | > 6.70 | –
17 | CCC1(CNCc2cc(C(F)(F)F)c3oc(-c4cccc(-c5ccc(F)cc5-c5nncn5C)c4)nc3c2)CCC1 [HP-2, 1-(1-Ethylcyclobutyl)-N-((2-(4′-fluoro-2′-(4-methyl-4H-1,2,4-triazol-3-yl)-[1,1′-biphenyl]-3-yl)-7-(trifluoromethyl)benzo[d]oxazol-5-yl)methyl)methanamine] | > 6.70 | > 6.70 | > 6.70 | –
18 | CC(C)CC1(CNCc2cc(C(F)(F)F)c3oc(-c4cccc(-c5ccc(F)cc5-c5nncn5C)c4)nc3c2)CCC1 [HQ-2, 1-(2-(4′-Fluoro-2′-(4-methyl-4H-1,2,4-triazol-3-yl)-[1,1′-biphenyl]-3-yl)-7-(trifluoromethyl)benzo[d]oxazol-5-yl)-N-((1-isobutylcyclobutyl)methyl)methanamine] | > 6.70 | 6.00 to 6.70 | > 6.70 | –
19 | CN(Cc1cc(Cl)c2oc(-c3cccc(-c4ccc(F)cc4-c4nncn4C)c3)nc2c1)[C@@H]1CCC[C@@H]1O [HS-3, (1S,2R)-2-(((7-Chloro-2-(4′-fluoro-2′-(4-methyl-4H-1,2,4-triazol-3-yl)-[1,1′-biphenyl]-3-yl)benzo[d]oxazol-5-yl)methyl)(methyl)amino)cyclopentan-1-ol] | > 6.70 | > 6.70 | > 6.70 | –
20 | COc1cc(CN(C)[C@@H]2CCC[C@@H]2O)cc2nc(-c3cccc(-c4ccc(F)cc4-c4nncn4C)c3)oc12 [HT-3, (1S,2R)-2-(((2-(4′-Fluoro-2′-(4-methyl-4H-1,2,4-triazol-3-yl)-[1,1′-biphenyl]-3-yl)-7-methoxybenzo[d]oxazol-5-yl)methyl)(methyl)amino)cyclopentan-1-ol] | > 6.70 | 6.00 to 6.70 | > 6.70 | –
21 | Cn1cnnc1-c1cc(F)ccc1-c1cccc(-c2nc3cc(N[C@@H]4CCC[C@@H]4O)cc(C(F)(F)F)c3o2)c1 [HV-3, (1S,2R)-2-((2-(4′-Fluoro-2′-(4-methyl-4H-1,2,4-triazol-3-yl)-[1,1′-biphenyl]-3-yl)-7-(trifluoromethyl)benzo[d]oxazol-5-yl)amino)cyclopentan-1-ol] | 6.00 to 6.70 | 4.30 to 5.00 | 5.00 to 6.00 | –
22 | Cn1cnnc1-c1cc(F)ccc1-c1cccc(-c2nc3cc(CNCC4(F)CCC4)cc(C(F)(F)F)c3o2)c1 [HW-2, 1-(2-(4′-Fluoro-2′-(4-methyl-4H-1,2,4-triazol-3-yl)-[1,1′-biphenyl]-3-yl)-7-(trifluoromethyl)benzo[d]oxazol-5-yl)-N-((1-fluorocyclobutyl)methyl)methanamine] | > 6.70 | 6.00 to 6.70 | > 6.70 | –
